# Results reported in US10420831B2, “Inactivation of viruses by delipidation” (priority 2016, dated 2019).
# Columns and labels:
# PRRSV-RESP = assay: Blind passage assay of delipidated PRRSV on Marc-145 cells; assay type: cell-based; settings: 100 mM MBCD for 90 minutes
# [1] = test system: human influenza virus H1N1 A/WSN/33 strain; assay: Hemagglutination (HA) activity of treated IFV with chicken red blood cells; settings: 50 mM MBCD
# Experimental: Hemagglutination (HA) activity is determined as follows. Freshly isolated chicken blood is washed three times with PBS, and the red blood cells (RBC) are resuspended in PBS at a concentration of 1%. Virus dilutions (50 μL) are made in PBS and mixed with 50 μL of the RBC suspension. The mixture is added to individual wells in a 96-well plate and the RBC are allowed to settle for 45 minutes. The wells are judged to be HA negative (i.e. no agglutination of RBC) if a dot or pellet of RBC is present, and a well is judged to be positive if a smooth suspension of RBC is present.
# In addition to MBCD, another lipid solvent, diisopropyl ether (DIPE) is used to delipidate IFV. […] After a brief centrifugation at 2,000×g for 3 minutes, visible solvent is removed, and the aqueous materials are left to dry in a fume hood for 20 minutes. The samples are then centrifuged at 200,000×g for 30 minutes to recover virus particles.
# PRRSV-RESP strain = assay: In vitro infectivity of PRRSV, plaque titration on Marc-145 cells; assay type: cell-based; settings: for In Vitro Infectivity: 60 minutes at 37° C.
# Experimental: The PRRSV are titrated for in vitro infectivity using the following procedure. Using the cell culture and transfer procedures above, Marc-145 cells are suspended in DMEM containing 10% FBS at a final density of 1.5×10^5 cell/mL. Two mL of the Marc-145 cell suspension are added to each well of a 6-well plate, and the plates are incubated overnight at 37° C. with 5% CO2. Virus samples are thawed in a 37° C. water bath, followed by centrifugation at 500×g for 10 minutes at 4° C. A 1/10 dilution series of viruses is prepared and stored at 4° C. until use, using EMEM as the dilution buffer.
# When the Marc-145 cells are at least 90% confluent, the medium is removed, and 0.5 mL dilution buffer and 0.5 mL of the virus dilution are added into each well. For the negative control, 1.0 mL dilution buffer is used. The plates are gently shaken immediately after each dilution is added. Plates are incubated for 60-90 minutes at 37° C. in 5% CO2 and rocked every 15 minutes. Each well of each 6-well plate is then overlaid with 3 mL of a 1:4 mixture of 2.5% low melting point agarose in PBS solution and dilution buffer at 37° C. The plates are incubated at room temperature for 15 minutes to allow the overlay mixture to solidify, and then the plates are incubated at 37° C. with 5% CO2 for 96 hours.
# Plaques are visualized using the following procedure. After the plaques are fully developed (96 hours post-infection), 1 mL 4% paraformaldehyde is added, and the plates are incubated at room temperature for 1 hour. Solubilized agarose is discarded, and 0.5 mL of 0.5% crystal violet is added to each well. The number of plaques is counted after 15 minutes of incubation with the crystal violet and converted to a titer based on the dilution factors.
# Solvent and mock treatments are conducted according to the following procedure. One hundred μL aliquots of the concentrated PRRSV stock at about 1×10^9 PFU/mL are diluted into 900 μL PBS in Eppendorf tubes to achieve a final titer of 1.0-5.0×10^8 PFU/mL. […] Eppendorf tubes are then capped and sealed with parafilm. All the samples are secured in an SHZ-82 constant-temperature orbital air-bath shaker (Changzhou Guohua Appliance Co., China) preheated to 37° C. The solvent- and mock-treated samples are spun at an orbital rotation speed of 220 rpm at 37° C. for the desired time. The respective samples are spun in a micro-centrifuge for 1 minute, and the supernatants containing IFV are transferred to ultracentrifuge tubes. Tubes are centrifuged at 100,000×g (OPTIMA™ L-100XP centrifuge; Beckman Coulter, Inc., Indianapolis Ind.) for 30 minutes to pellet the PRRSV, and the supernatants are discarded. The PRRSV pellets are resuspended in 200 μL PBS and stored at −80° C. until further analyses.
# The protein content of the delipidated and mock-treated PRRSV is determined using a BCA assay (PIERCE™ BCA Protein Assay Kit) according to the manufacturer's instructions. The cholesterol content also is determined using a cholesterol assay (Amplex® Red Cholesterol Assay Kit, Life Technologies, Grand Island, N.Y.) performed according to manufacturer's instruction. In vitro infectivity is measured using the same procedures as set forth above.
# After ultracentrifugation, the mock-treated and delipidated samples are tested for in vitro infectivity in the Marc-145 cells, and protein and cholesterol contents are determined, using the procedures set forth above.
# PRRSV strain SD 11-21 = assay: Inactivation of vaccine virus stock, TCID50 virus titration; assay type: cell-based; settings: PRRSV SD 11-21, final 30 mM MBCD in two additions, 48 hours at room temperature
substance,measurement,setting,value
methyl β-cyclodextrin [MBCD],plaques detected by the blind passage assay,PRRSV-RESP,no plaques are detected
same,HA units,"[1]; 37° C., 30 minutes",32 HA units
same,effect on HA activity (in words),"[1]; 37° C., 30 minutes",same degree as 2%-8% DIPE
same,effect on HA activity (in words),[1]; 45 minutes,not measurably affected
same,HA units,[1]; end-over-end rotation at 37° C. for 45 minutes,32 HA units
same,titer of delipidated PRRSV sample,PRRSV-RESP strain; 100 mM MBCD for 90 minutes,under the limit of detection
same,In Vitro Infectivity,"PRRSV-RESP strain; PRRSV-RESP, 5 mM MBCD",1.4 × 10^7 PFU/mL
same,In Vitro Infectivity,"PRRSV-RESP strain; PRRSV-RESP, 10 mM MBCD",7.0 × 10^6 PFU/mL
same,In Vitro Infectivity,"PRRSV-RESP strain; PRRSV-RESP, 20 mM MBCD",2.8 × 10^6 PFU/mL
same,In Vitro Infectivity,"PRRSV-RESP strain; PRRSV-RESP, 30 mM MBCD",1.2 × 10^5 PFU/mL
same,PRRSV infectivity reduced,"PRRSV-RESP strain; PRRSV-RESP, 50 mM MBCD, 60 min at 37° C.",about 380 fold
same,In Vitro Infectivity,"PRRSV-RESP strain; PRRSV-RESP, 50 mM MBCD",4.2 × 10^4 PFU/mL
same,live virus in MBCD-inactivated virus solution,PRRSV strain SD 11-21,no live virus was detected
